Measurements from PubChem BioAssay AID248 (DTP/NCI, 2004).
Where “and” joins values, the source holds several entries; their conditions need not be identical. Equal values may be shown once. Toxic doses and inconclusive results are not listed. No stated cut-off is given here; in the data, active means T/C of 150% or more; inactive means T/C below 125%. Square brackets hold non-standard residues; d marks the D form. Peptide text beside a SMILES is read from it. * marks the point of attachment. ξ: configuration not given here. Octanoyl = CCCCCCCC(=O)*; ξP = O=C(O)C1CCCN1

Test system: L1210 leukemia ip in BDF1 mice, survival T/C
Assay: NCI In Vivo Anticancer Drug Screen. Data for tumor model L1210 Leukemia (intraperitoneal) in B6D2F1 (BDF1) mice
Conditions: endpoint: mean survival time, higher = longer survival
Procedure, shortened: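 Transplantable tumor model; survival measured in treated vs vehicle control mice. Value = treated/control.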

[1] = dose: 100.0 mg/kg/injection, schedule: Q01DX001 (ip), vehicle: Klucel (hydroxypropylcellulose) (HPC)
[2] = dose: 100.0 mg/kg/injection, schedule: Q04DX002 (ip), vehicle: saline with Tween-80
[3] = dose: 200.0 mg/kg/injection, schedule: Q01DX001 (ip), vehicle: Klucel (hydroxypropylcellulose) (HPC)
[4] = dose: 200.0 mg/kg/injection, schedule: Q04DX002 (ip), vehicle: saline with Tween-80
[5] = dose: 400.0 mg/kg/injection, schedule: Q04DX002 (ip), vehicle: saline with Tween-80
[6] = dose: 25.0 mg/kg/injection, schedule: Q01DX009 (ip), vehicle: saline
[7] = dose: 50.0 mg/kg/injection, schedule: Q01DX009 (ip), vehicle: saline with Tween-80
[8] = dose: 100.0 mg/kg/injection, schedule: Q01DX009 (ip), vehicle: saline with Tween-80
[9] = dose: 100.0 mg/kg/injection, schedule: Q04DX003 (ip), vehicle: saline with Tween-80
[10] = dose: 200.0 mg/kg/injection, schedule: Q01DX009 (ip), vehicle: saline with Tween-80
[11] = dose: 400.0 mg/kg/injection, schedule: Q01DX009 (ip), vehicle: saline with Tween-80
[12] = dose: 3.12 mg/kg/injection, schedule: Q01DX009 (ip), vehicle: saline
[13] = dose: 25.0 mg/kg/injection, schedule: Q04DX003 (ip), vehicle: saline
[14] = dose: 100.0 mg/kg/injection, schedule: Q04DX003 (ip), vehicle: Klucel (hydroxypropylcellulose) (HPC)
[15] = dose: 200.0 mg/kg/injection, schedule: Q04DX003 (ip), vehicle: Klucel (hydroxypropylcellulose) (HPC)
[16] = dose: 100.0 mg/kg/injection, schedule: Q01DX001 (ip), vehicle: carboxymethylcellulose (CMC)
[17] = dose: 200.0 mg/kg/injection, schedule: Q01DX001 (ip), vehicle: carboxymethylcellulose (CMC)

Measured: T/C

CCS(=O)(=O)c1ccc(NC(=O)OC2CCC3(C)C(=CCC4C3CCC3(C)C(C(C)CCCC(C)C)CCC43)C2)cc1 (centres undefined)
inactive: dose: 100.0 mg/kg/injection, schedule: Q01DX001 (sc), vehicle: steriod suspending solution 97 % of control | dose: 200.0 mg/kg/injection, schedule: Q01DX001 (sc), vehicle: steriod suspending solution 100 % of control | dose: 400.0 mg/kg/injection, schedule: Q01DX001 (sc), vehicle: steriod suspending solution 94 % of control

N#CC1SCCCS1
inactive: dose: 50.0 mg/kg/injection, schedule: Q01DX001 (ip), vehicle: Klucel (hydroxypropylcellulose) (HPC) 104 % of control | [1] 105 % of control | [2] 101 % of control | [3] 96 % of control | [4] 108 % of control | [5] 108 % of control

O=S(=O)(O)c1ccccc1O
inactive: [6] 101 % of control | dose: 50.0 mg/kg/injection, schedule: Q01DX009 (ip), vehicle: saline 98 % of control

CC(=O)NC/C(C)=N/Nc1ccc([N+](=O)[O-])cc1[N+](=O)[O-]
inactive: dose: 25.0 mg/kg/injection, schedule: Q01DX009 (ip), vehicle: saline with Tween-80 91 % of control | [7] 93 % of control | [8] 102 % of control | [9] 88 % of control

CCCCCCCCCCCCCCCCOC(=O)CC(=O)OCCCCCCCCCCCCCCCC
inactive: dose: 100.0 mg/kg/injection, schedule: Q01DX001 (ip), vehicle: other 86 % of control | dose: 200.0 mg/kg/injection, schedule: Q01DX001 (ip), vehicle: other 100 % of control | dose: 400.0 mg/kg/injection, schedule: Q01DX001 (ip), vehicle: other 108 % of control

Cc1cc(Cl)c(Cl)cc1NC(=O)Nc1cccc(F)c1
inactive: [8] 94 % of control | [10] 100 % of control | [11] 94 % of control

CC(C)OC(=O)CC#N
inactive: dose: 100.0 mg/kg/injection, schedule: Q01DX001 (ip), vehicle: saline 103 % of control | dose: 200.0 mg/kg/injection, schedule: Q01DX001 (ip), vehicle: saline 103 % of control | dose: 400.0 mg/kg/injection, schedule: Q01DX001 (ip), vehicle: saline 103 % of control

CCCCCCCC(=O)N1CCCC1C(=O)NCC(=O)NCC(=O)O (stereo not drawn) (Octanoyl-[ξP]-Gly-Gly-OH)
inactive: [1] 115 % of control | [3] 95 % of control | dose: 400.0 mg/kg/injection, schedule: Q01DX001 (ip), vehicle: Klucel (hydroxypropylcellulose) (HPC) 95 % of control

COc1ccc(CCCCI)cc1
inactive: dose: 100.0 mg/kg/injection, schedule: Q01DX001 (ip), vehicle: acetone 98 % of control | dose: 100.0 mg/kg/injection, schedule: Q04DX003 (ip), vehicle: acetone 93 % of control | dose: 200.0 mg/kg/injection, schedule: Q01DX001 (ip), vehicle: acetone 95 % of control | dose: 200.0 mg/kg/injection, schedule: Q04DX003 (ip), vehicle: acetone 94 % of control | dose: 400.0 mg/kg/injection, schedule: Q01DX001 (ip), vehicle: acetone 115 % of control | dose: 400.0 mg/kg/injection, schedule: Q04DX003 (ip), vehicle: acetone 95 % of control

FC(F)(F)c1ccc2c(c1)N(CCCN1CCN(CCN3CCOCC3)CC1)c1ccccc1S2
inactive: dose: 0.78 mg/kg/injection, schedule: Q01DX009 (ip), vehicle: saline 100 % of control | dose: 1.56 mg/kg/injection, schedule: Q01DX009 (ip), vehicle: saline 106 % of control | [12] 95 % of control | dose: 12.5 mg/kg/injection, schedule: Q04DX003 (ip), vehicle: saline 108 % of control | [13] 116 % of control

O=S(CCCl)c1ccccc1 (centres undefined)
inactive: [14] 98 % of control | [15] 98 % of control | dose: 400.0 mg/kg/injection, schedule: Q04DX003 (ip), vehicle: Klucel (hydroxypropylcellulose) (HPC) 98 % of control

CCC(C)(C)NC1=C(Cl)C(=O)c2ccccc2C1=O
inactive: dose: 6.25 mg/kg/injection, schedule: Q01DX001 (ip), vehicle: saline with Tween-80 95 % of control | dose: 12.5 mg/kg/injection, schedule: Q01DX001 (ip), vehicle: saline with Tween-80 106 % of control

COc1cc(OC)c(OC)cc1C=NC1CCCCCCC1
inactive: [7] 91 % of control | [8] 102 % of control | [10] 102 % of control

CC(C)(C)C(=O)CC(=O)C(C)(C)C.CC(C)(C)C(=O)CC(=O)C(C)(C)C.CC(C)(C)C(=O)CC(=O)C(C)(C)C.[Co]
inactive: dose: 100.0 mg/kg/injection, schedule: Q04DX002 (ip), vehicle: gum acacia 107 % of control | dose: 200.0 mg/kg/injection, schedule: Q04DX002 (ip), vehicle: gum acacia 90 % of control | dose: 400.0 mg/kg/injection, schedule: Q04DX002 (ip), vehicle: gum acacia 93 % of control

COc1ccc(/C=N/N=C(\N)N[N+](=O)[O-])cc1OC
inactive: [8] 102 % of control | dose: 100.0 mg/kg/injection, schedule: Q04DX003 (ip), vehicle: saline sonified 92 % of control | [10] 98 % of control | dose: 200.0 mg/kg/injection, schedule: Q04DX003 (ip), vehicle: saline sonified 97 % of control | [11] 97 % of control | dose: 400.0 mg/kg/injection, schedule: Q04DX003 (ip), vehicle: saline sonified 91 % of control

O=P(O)(O)CO
inactive: dose: 100.0 mg/kg/injection, schedule: Q04DX002 (ip), vehicle: saline 97 % of control and 87 % of control | dose: 200.0 mg/kg/injection, schedule: Q04DX002 (ip), vehicle: saline 86 % of control

CCS[S+](CC)CC
inactive: dose: 6.25 mg/kg/injection, schedule: Q01DX009 (ip), vehicle: saline with Tween-80 98 % of control | dose: 12.5 mg/kg/injection, schedule: Q01DX009 (ip), vehicle: saline with Tween-80 102 % of control

CNC(=O)c1cnc(SC)nc1N
inactive: dose: 50.0 mg/kg/injection, schedule: Q04DX003 (ip), vehicle: Klucel (hydroxypropylcellulose) (HPC) 103 % of control | [1] 103 % of control | [14] 101 % of control | [3] 100 % of control | [15] 111 % of control

N#CCc1c(Cl)sc(Cl)c1CC#N
inactive: [9] 88 % of control | dose: 200.0 mg/kg/injection, schedule: Q04DX003 (ip), vehicle: saline with Tween-80 88 % of control

COc1ccccc1/C=C(/C)C(C)=O
inactive: dose: 75.0 mg/kg/injection, schedule: Q04DX003 (ip), vehicle: Klucel (hydroxypropylcellulose) (HPC) 102 % of control | [16] 103 % of control | dose: 150.0 mg/kg/injection, schedule: Q04DX003 (ip), vehicle: Klucel (hydroxypropylcellulose) (HPC) 97 % of control | [17] 108 % of control | dose: 300.0 mg/kg/injection, schedule: Q04DX003 (ip), vehicle: Klucel (hydroxypropylcellulose) (HPC) 94 % of control | dose: 400.0 mg/kg/injection, schedule: Q01DX001 (ip), vehicle: carboxymethylcellulose (CMC) 97 % of control

FC(F)(F)c1ccc2c(c1)N(CCCNCCN1CCOCC1)c1ccccc1S2
inactive: [12] 117 % of control | dose: 6.25 mg/kg/injection, schedule: Q01DX009 (ip), vehicle: saline 101 % of control | dose: 12.5 mg/kg/injection, schedule: Q01DX009 (ip), vehicle: saline 101 % of control | [6] 90 % of control | [13] 102 % of control | dose: 50.0 mg/kg/injection, schedule: Q04DX003 (ip), vehicle: saline 123 % of control

CCCCCCOCC(O)CNCCN (centres undefined)
inactive: dose: 6.25 mg/kg/injection, schedule: Q04DX003 (ip), vehicle: saline with Tween-80 95 % of control | dose: 12.5 mg/kg/injection, schedule: Q04DX003 (ip), vehicle: saline with Tween-80 90 % of control | dose: 25.0 mg/kg/injection, schedule: Q04DX003 (ip), vehicle: saline with Tween-80 96 % of control

C/C(=N\NC(=O)c1ccc([N+](=O)[O-])cc1)c1ccccc1
inactive: [16] 87 % of control | [17] 87 % of control

COC(=O)c1c2cccccc-2c(C(=O)OC)c1N
inactive: [2] 97 % of control | [4] 91 % of control | [5] 94 % of control

ClC(Cl)=[C](Cl)[Hg][C](Cl)=C(Cl)Cl
inactive: dose: 0.39 mg/kg/injection, schedule: Q01DX009 (ip), vehicle: saline with Tween-80 96 % of control | dose: 0.78 mg/kg/injection, schedule: Q01DX009 (ip), vehicle: saline with Tween-80 97 % of control | dose: 1.56 mg/kg/injection, schedule: Q01DX009 (ip), vehicle: saline with Tween-80 93 % of control and 86 % of control
